Results taken from the supplement of paper PMC10307832.

How the values were obtained:
Assay in all cases: relative viability (nuclei count vs DMSO), 5 days (fraction); higher = more cells survive
[1] = compound: CC(C)C[C@H](NC(=O)[C@H](Cc1ccccc1)NC(=O)c1cnccn1)B(O)O [Bortezomib] + O=C(c1cc(Cc2n[nH]c(=O)c3ccccc23)ccc1F)N1CCN(C(=O)C2CC2)CC1 [Olaparib] (partner 8 µM)
Outline: (§1)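 Nuclei were stained with Hoechst during a one-step fixation (final 0.05% Triton X-100, 1% formaldehyde, 1 ug/ml Hoechst) carried out 5 days after dosing, then counted on 4× images. The cells, lung cancer lines in 1536-well plates, had been dosed by pin tool the day after seeding with one drug alone or a fixed anchor-drug dose plus five library-drug doses (not always all listed) in √10 steps. Relative viability is the nuclei count in treated wells divided by that in vehicle wells, and each value is the median of duplicate plates.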

[2] = compound: COC1=CC(c2cc3ccccc3[nH]2)=N/C1=C\c1[nH]c(C)cc1C [Obatoclax] + CCNC(=O)c1noc(-c2cc(C(C)C)c(O)cc2O)c1-c1ccc(CN2CCOCC2)cc1 [Luminespib] (partner 0.01 µM)
Outline: as §1

[3] = compound: COC1=CC(c2cc3ccccc3[nH]2)=N/C1=C\c1[nH]c(C)cc1C [Obatoclax] + CC(C)C[C@H](NC(=O)[C@H](Cc1ccccc1)NC(=O)c1cnccn1)B(O)O [Bortezomib] (partner 0.002 µM)
Outline: as §1

[4] = compound: CC(C)C[C@H](NC(=O)[C@H](Cc1ccccc1)NC(=O)c1cnccn1)B(O)O [Bortezomib] + COc1cccc2cc(-c3nc([C@H]4CC[C@H](C(=O)O)CC4)n4ncnc(N)c34)[nH]c12 [OSI-027] (partner 0.5 µM)
Outline: as §1

RERF-LC-KJ
relative viability ([1]; first compound 0.0002 µM): 0.803 | relative viability ([1]; first compound 0.000632 µM): 1.02 | relative viability ([1]; first compound 0.002 µM): 0.728 | relative viability ([1]; first compound 0.006325 µM): 0.286 | relative viability ([1]; first compound 0.02 µM): 0.199 | relative viability ([2]; first compound 0.01 µM): 1.07 | relative viability ([2]; first compound 0.03162 µM): 1.32 | relative viability ([2]; first compound 0.1 µM): 1.04 | relative viability ([2]; first compound 0.3162 µM): 0.583 | relative viability ([2]; first compound 1 µM): 0.554 | relative viability ([3]; first compound 0.01 µM): 1.04 | relative viability ([3]; first compound 0.03162 µM): 1.07 | relative viability ([3]; first compound 0.1 µM): 1.09 | relative viability ([3]; first compound 0.3162 µM): 0.851 | relative viability ([3]; first compound 1 µM): 0.765 | relative viability ([4]; first compound 0.0002 µM): 0.581 | relative viability ([4]; first compound 0.000632 µM): 0.547 | relative viability ([4]; first compound 0.002 µM): 0.555 | relative viability ([4]; first compound 0.006325 µM): 0.216 | relative viability ([4]; first compound 0.02 µM): 0.24

SK-LU-1
relative viability ([1]; first compound 0.0002 µM): 0.477 | relative viability ([1]; first compound 0.000632 µM): 0.442 | relative viability ([1]; first compound 0.002 µM): 0.462 | relative viability ([1]; first compound 0.006325 µM): 0.198 | relative viability ([1]; first compound 0.02 µM): 0.149 | relative viability ([2]; first compound 0.01 µM): 0.195 | relative viability ([2]; first compound 0.03162 µM): 0.205 | relative viability ([2]; first compound 0.1 µM): 0.173 | relative viability ([2]; first compound 0.3162 µM): 0.173 | relative viability ([2]; first compound 1 µM): 0.11 | relative viability ([3]; first compound 0.01 µM): 1.15 | relative viability ([3]; first compound 0.03162 µM): 1.05 | relative viability ([3]; first compound 0.1 µM): 0.44 | relative viability ([3]; first compound 0.3162 µM): 1.05 | relative viability ([3]; first compound 1 µM): 0.75 | relative viability ([4]; first compound 0.0002 µM): 0.336 | relative viability ([4]; first compound 0.000632 µM): 0.286 | relative viability ([4]; first compound 0.002 µM): 0.319 | relative viability ([4]; first compound 0.006325 µM): 0.125 | relative viability ([4]; first compound 0.02 µM): 0.122

SW 1573
relative viability ([1]; first compound 0.0002 µM): 0.421 | relative viability ([1]; first compound 0.000632 µM): 0.408 | relative viability ([1]; first compound 0.002 µM): 0.319 | relative viability ([1]; first compound 0.006325 µM): 0.0537 | relative viability ([1]; first compound 0.02 µM): 0.0441 | relative viability ([2]; first compound 0.01 µM): 0.26 | relative viability ([2]; first compound 0.03162 µM): 0.442 | relative viability ([2]; first compound 0.1 µM): 0.206 | relative viability ([2]; first compound 0.3162 µM): 0.188 | relative viability ([2]; first compound 1 µM): 0.164 | relative viability ([3]; first compound 0.01 µM): 1.04 | relative viability ([3]; first compound 0.03162 µM): 0.998 | relative viability ([3]; first compound 0.1 µM): 0.925 | relative viability ([3]; first compound 0.3162 µM): 0.895 | relative viability ([3]; first compound 1 µM): 0.476 | relative viability ([4]; first compound 0.0002 µM): 0.658 | relative viability ([4]; first compound 0.000632 µM): 0.665 | relative viability ([4]; first compound 0.002 µM): 0.234 | relative viability ([4]; first compound 0.006325 µM): 0.0635 | relative viability ([4]; first compound 0.02 µM): 0.0625

UMC-11
relative viability ([1]; first compound 0.0002 µM): 0.441 | relative viability ([1]; first compound 0.000632 µM): 0.398 | relative viability ([1]; first compound 0.002 µM): 0.348 | relative viability ([1]; first compound 0.006325 µM): 0.189 | relative viability ([1]; first compound 0.02 µM): 0.133 | relative viability ([2]; first compound 0.01 µM): 0.993 | relative viability ([2]; first compound 0.03162 µM): 0.968 | relative viability ([2]; first compound 0.1 µM): 1.05 | relative viability ([2]; first compound 0.3162 µM): 1.07 | relative viability ([2]; first compound 1 µM): 0.428 | relative viability ([3]; first compound 0.01 µM): 0.645 | relative viability ([3]; first compound 0.03162 µM): 0.428 | relative viability ([3]; first compound 0.1 µM): 0.689 | relative viability ([3]; first compound 0.3162 µM): 0.743 | relative viability ([3]; first compound 1 µM): 0.265 | relative viability ([4]; first compound 0.0002 µM): 0.461 | relative viability ([4]; first compound 0.000632 µM): 0.472 | relative viability ([4]; first compound 0.002 µM): 0.493 | relative viability ([4]; first compound 0.006325 µM): 0.325 | relative viability ([4]; first compound 0.02 µM): 0.148
